Test results published in patent publication US9113629B2, “4-amino-6-(4-substituted-phenyl)-picolinates and 6-amino-2-(4-substituted-phenyl)-pyrimidine-4-carboxylates and their use as herbicides” (DOW AGROSCIENCES LLC, priority 2013, dated 2015).

Assays:
Test in all cases: Post-emergent Test III, herbicidal activity in wheat and barley
Type in all cases: in vivo
[1] = tested on: STEME: common chickweed (Stellaria media); conditions: for pest or weed control at 35 g/ha / pest or weed control at 70 g/ha / pest or weed control at 140 g/ha: Stellaria media, post-emergence, 504 h, read-out: Visual Growth Reduction (%) 21 Days After Application STEME; for pest or weed control at 35 g/ha: 35 g ai/ha; for pest or weed control at 70 g/ha: 70 g ai/ha; for pest or weed control at 140 g/ha: 140 g ai/ha; for GR50 STEME / GR80 STEME: probit analysis, 21 days after application; for GR50 STEME: dose for growth reduction of 50 percent; for GR80 STEME: dose for growth reduction of 80 percent
Procedure, shortened: (§1)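 GR20, GR50, GR80 and GR90 come from probit analysis of visual injury scores (0 = none, 100 = complete kill) taken 21 d after treatment. Foliar application was by track sprayer delivering 187 L/ha at five rates, from high down to 1/16×, onto greenhouse plants at the 2–3 leaf stage, with solvent-blank controls.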

[2] = tested on: GALAP: cleavers (Galium aparine); conditions: Table 8, 21 d; for pest or weed control at 35 g/ha / pest or weed control at 70 g/ha: Galium aparine, post-emergence, 504 h, post-emergent, read-out: Visual Growth Reduction (%) 21 Days After Application GALAP; for pest or weed control at 35 g/ha: 35 g ai/ha; for pest or weed control at 70 g/ha: 70 g ai/ha; for GR50 GALAP: dose for 50 percent growth reduction; for GR50 GALAP / GR80 GALAP: probit analysis; for GR80 GALAP: dose for 80 percent growth reduction
Procedure, shortened: as §1

[3] = tested on: CIRAR: Canada thistle (Cirsium arvense); conditions: Table 8, 21 d; for pest or weed control at 35 g/ha / pest or weed control at 70 g/ha: Cirsium arvense, post-emergence, 504 h, post-emergent, read-out: Visual Growth Reduction (%) 21 Days After Application CIRAR; for pest or weed control at 35 g/ha: 35 g ai/ha; for pest or weed control at 70 g/ha: 70 g ai/ha; for GR50 CIRAR: dose for 50 percent growth reduction; for GR50 CIRAR / GR80 CIRAR: probit analysis; for GR80 CIRAR: dose for 80 percent growth reduction
Procedure, shortened: as §1

SMILES	pest or weed control at 35 g/ha [1] [%]	pest or weed control at 70 g/ha [1] [%]	pest or weed control at 140 g/ha [1] [%]	GR50 STEME [1] [g ai/ha]	GR80 STEME [1] [g ai/ha]	pest or weed control at 35 g/ha [2] [%]	pest or weed control at 70 g/ha [2] [%]	GR50 GALAP [2] [g ai/ha]	GR80 GALAP [2] [g ai/ha]	pest or weed control at 35 g/ha [3] [%]	pest or weed control at 70 g/ha [3] [%]	GR50 CIRAR [3] [g ai/ha]	GR80 CIRAR [3] [g ai/ha]
Nc1cc(-c2ccc(Br)c(F)c2F)nc(C(=O)O)c1Cl [Compound 91]	0 to 29	30 to 44	45 to 59	>140	>140								
Nc1cc(-c2ccc(Br)c(F)c2)nc(C(=O)O)c1Cl [Compound 110, 4-Amino-6-(4-bromo-3-fluorophenyl)-3-chloropicolinic acid]						95 to 100	95 to 100	1	1	75 to 84	75 to 84	19	52
COc1c(N)nc(-c2ccc(Br)c(F)c2)nc1C(=O)O [Compound 113, 6-Amino-2-(4-bromo-3-fluorophenyl)-5-methoxypyrimidine-4-carboxylic acid]						95 to 100	95 to 100	5	12	75 to 84	85 to 94	7	33
Nc1c(F)c(-c2ccc(Cl)c(F)c2)nc(C(=O)O)c1Cl [Compound 217]	60 to 74	75 to 84	75 to 84	28	88								
